# Laboratory results: patent publication US20090233906A1, “IMIDAZOAZEPINONE COMPOUNDS” (priority 2006, published 2009)
# System: human T-bet
# Test: HEKT-bet-luc assay (normalized)
# Assay type: cell-based
# Details: Homo sapiens, HEK293, 24 h, normalized HEKT-bet-luc IC50; engineered HEK cells, T-box responsive luciferase reporter, compound 24 hours; normalized to reference ER-819544; read-out: IC50
# Description: HEKT-bet-luc assay: This assay measures a T-bet dependent reporter (luciferase) activity in engineered HEK cells that express a human T-bet and a T-box responsive element driving luciferase reporter. HEKT-bet cells were plated at 2×10^4/well in 96-well plate and compound was added into cell culture for 24 hours. Luciferase activity was measured by adding 50 μl of Steady-Glo reagent (Promega) and samples were read in Victor V reader (PerkinElmer). The activity of compound was determined by comparing compound treated samples to non-compound treated vehicle controls. The IC50 values were calculated utilizing a maximum value corresponding to the amount of luciferase in the absence of a test compound and a minimum value corresponding to a test compound value obtained at maximum inhibition.
# Determination of Normalized HEKT-bet IC50 values: Compounds were assayed in microtiter plates. Each plate included a reference compound which was ER-819544. The un-normalized IC50 value for a particular compound was divided by the IC50 value determined for the reference compound in the same microtiter plate to provide a relative potency value. The relative potency value was then multiplied by the established potency of the reference compound to provide the normalized HEKT-bet IC50 value. […] The IC50 values provided herein were obtained using this normalization method.
row,SMILES,IC50
1,CCN1C(=O)N2Cc3cc(OC)cc(OC)c3C(C)C=C2C12CCN(Cc1cccs1)CC2 (stereo not shown) [compound 819556],166 nM
2,COCCN1C(=O)N2Cc3cc(OC)cc(OC)c3C(C)C=C2C12CCN(Cc1cc(OC)cc(OC)c1)CC2 (stereo not shown) [compound 819543],15 nM
3,CCN1C(=O)N2Cc3cc(OC)cc(OC)c3C(C)C=C2C12CCN(Cc1cscc1Br)CC2 (stereo not shown) [compound 819558],740 nM
4,CCN1C(=O)N2Cc3cc(OC)cc(OC)c3C(C)(C)C=C2C12CCN(Cc1cccc3cccnc13)CC2 [compound 819604],120 nM
5,CC=C1C=C2N(Cc3cc(OC)cc(OC)c31)C(=O)N(CC)C21CCN(Cc2cc(OC)cc(OC)c2)CC1 [compound 819651],110 nM
6,CCC1C=C2N(Cc3cc(OC)cc(OC)c31)C(=O)N(CCOC)C21CCN(Cc2cc(OC)cc(OC)c2)CC1 (stereo not shown) [compound 819549],15 nM
7,CCN1C(=O)N2Cc3cc(OC)cc(OC)c3C(C)(C)C=C2C12CCN(Cc1ccccc1)CC2 [compound 819640],542 nM
8,COCCN1C(=O)N2Cc3ccoc3C(C)(C)C=C2C12CCN(Cc1cc(OC)cc(OC)c1)CC2 [compound 819698],1980 nM
9,COc1cc(CN2CCC3(CC2)C2=CC(C)(C)c4c(cc(OC)cc4OC)CN2C(=O)N3Cc2cccc(-n3cccc3)c2)cc(OC)c1 [compound 819590],514 nM
10,COc1cc2c(c(OC)c1)C(C)(C)C=C1N(C2)C(=O)N(CCO)C12CCN(Cc1ccccc1)CC2 [compound 819642],365 nM
11,CCN1C(=O)N2Cc3cc(OC)cc(OC)c3C(C)C=C2C12CCN(Cc1occ(C)c1C)CC2 (stereo not shown) [compound 819771],205 nM
12,CCN1C(=O)N2Cc3cc(OC)cc(OC)c3C(C)C=C2C12CCN(Cc1cc(Br)cc(Br)c1)CC2 (stereo not shown) [compound 819599],4710 nM
13,CCN1C(=O)N2Cc3cc(OC)cc(OC)c3C(C)C=C2C12CCN(Cc1cccc3cnccc13)CC2 (stereo not shown) [compound 819593],140 nM
14,CCN1C(=O)N2Cc3cc(OC)cc(OC)c3C(C)C=C2C12CCN(Cc1ccco1)CC2 (stereo not shown) [compound 819768],183 nM
15,COc1cc2c(c(OC)c1)C(C)(C)C=C1N(C2)C(=O)N(C)C12CCN(Cc1ccccc1)CC2 [compound 819629],840 nM
16,COc1cc(CN2CCC3(CC2)C2=CC(C)(C)c4c(cc(OC)cc4OC)CN2C(=O)N3CCO)c(F)c(OC)c1 [compound 819724],104 nM
17,CCN1C(=O)N2Cc3cc(OC)cc(OC)c3C(C)C=C2C12CCN(Cc1cccc(OC)c1OC)CC2 (stereo not shown) [compound 819767],148 nM
18,CCN1C(=O)N2Cc3cc(OC)cc(OC)c3C(C)(C)C=C2C12CCN(Cc1cccc(OC)c1)CC2 [compound 819646],184 nM
19,COCCN1C(=O)N2Cc3cc(OC)cc(OC)c3C(C)(C)C=C2C12CCN(Cc1cc(OC)cc(OC)c1)CC2 [compound 819544],35 nM
20,CCN1C(=O)N2Cc3cc(OC)cc(OC)c3C(C)(C)C=C2C12CCN(Cc1cn(C)c3ccccc13)CC2 [compound 819606],2870 nM
21,CCN1C(=O)N2Cc3cc(OC)cc(OC)c3C(C)(C)C=C2C12CCN(Cc1ccc3nc[nH]c3c1)CC2 [compound 819777],110 nM
22,CCN1C(=O)N2Cc3cc4c(cc3C(C)(C)C=C2C12CCN(Cc1cc(OC)cc(OC)c1)CC2)OCO4 [compound 819708],3600 nM
23,COCCN1C(=O)N2Cc3cc(OC)cc(OC)c3C(C)(C)C=C2C12CCN(Cc1cc(OC)cc(OC)c1O)CC2 [compound 819750],41 nM
24,COc1cc2c(c(OC)c1OC)C(C)C=C1N(C2)C(=O)N(CCO)C12CCN(Cc1cc(C)cc(C)c1)CC2 (stereo not shown) [compound 819735],140 nM

row,SMILES,IC50
1,CCN1C(=O)N2Cc3cc(OC)cc(OC)c3/C=C/C=C\2C12CCN(Cc1cc(OC)cc(OC)c1)CC2 [compound 819702],600 nM
2,CCN1C(=O)N2Cc3cc(OC)cc(OC)c3C(C)(C)C=C2C12CCN(Cc1ccnc3ccccc13)CC2 [compound 819601],260 nM
3,COCCN1C(=O)N2Cc3cc(OC)cc(OC)c3C(C)(C)C=C2C12CCN(Cc1cc(C)cc(C)c1)CC2 [compound 819659],68 nM
4,COCCN1C(=O)N2Cc3cc(F)cc(F)c3C(C)(C)C=C2C12CCN(Cc1cc(OC)cc(OC)c1)CC2 [compound 819704],2760 nM
5,COc1cc2c(c(OC)c1)C(C)(C)C=C1N(C2)C(=O)N(C)C12CCN(Cc1ccc3ccccc3c1)CC2 [compound 819627],1600 nM
6,COCCN1C(=O)N2Cc3cc(OC)cc(OC)c3C(C)(C)C=C2C12CCN(Cc1cc(OC)cc(OC)c1OC)CC2 [compound 819752],71 nM
7,CCN1C(=O)N2Cc3cc(OC)cc(OC)c3C(C)C=C2C12CCN(Cc1cn(C)c3ccccc13)CC2 (stereo not shown) [compound 819596],720 nM
8,COCCN1C(=O)N2Cc3ccccc3C(C)(C)C=C2C12CCN(Cc1cc(OC)cc(OC)c1)CC2 [compound 819677],1020 nM
9,CCC=C1C=C2N(Cc3cc(OC)cc(OC)c31)C(=O)N(CC)C21CCN(Cc2cc(OC)cc(OC)c2)CC1 [compound 819652],270 nM
10,COc1cccc(CN2CCC3(CC2)C2=CC(C)(C)c4c(cc(OC)cc4OC)CN2C(=O)N3Cc2ccccc2)c1 [compound 819649],4940 nM
11,COc1cccc(CN2CCC3(CC2)C2=CC(C)(C)c4c(cc(OC)cc4OC)CN2C(=O)N3CCO)c1 [compound 819648],147 nM
12,CCN1C(=O)N2Cc3cc(OC)cc(OC)c3C(C)C=C2C12CCN(Cc1cccc3nccnc13)CC2 (stereo not shown) [compound 819595],90 nM
13,COCCN1C(=O)N2Cc3cc(OC)ccc3C(C)(C)C=C2C12CCN(Cc1ccccc1)CC2 [compound 819613],1310 nM
14,CCN1C(=O)N2Cc3cc(OC)cc(OC)c3C(C)C=C2C12CCN(Cc1cccc3ncccc13)CC2 (stereo not shown) [compound 819592],86 nM
15,COCCN1C(=O)N2Cc3cc(OC)cc(OC)c3C(C)(C)C=C2C12CCN(Cc1cc(OC)cc(OC)c1C)CC2 [compound 819749],44 nM
16,COCCN1C(=O)N2Cc3cc(OC)ccc3C(C)(C)C=C2C12CCN(Cc1cc(OC)cc(OC)c1)CC2 [compound 819655],204 nM
17,COc1cc2c(c(OC)c1)C(C)C=C1N(C2)C(=O)N(C)C12CCN(Cc1cccc3ncccc13)CC2 (stereo not shown) [compound 819688],288 nM
18,COCCN1C(=O)N2Cc3cc(OC)cc(OC)c3CC=C2C12CCN(Cc1cc(OC)cc(OC)c1)CC2 [compound 819673],102 nM
19,COc1cccc(CN2CCC3(CC2)C2=CC(C)(C)c4c(cc(OC)cc4OC)CN2C(=O)N3Cc2ccc(-n3cccn3)cc2)c1 [compound 819650],669 nM
20,CCN1C(=O)N2Cc3cc(OC)cc(OC)c3C(C)(C)C=C2C12CCN(Cc1cc(OC)cc(OC)c1)CC2 [compound 819583],112 nM
21,CCN1C(=O)N2Cc3cc(OC)cc(OC)c3C(C)C=C2C12CCN(Cc1ccoc1)CC2 (stereo not shown) [compound 819769],190 nM
22,CCN1C(=O)N2Cc3cc(OC)cc(OC)c3C(C)(C)C=C2C12CCN(Cc1cc(C)cc(C)c1)CC2 [compound 819607],500 nM
23,CCN1C(=O)N2Cc3cc(OC)cc(OC)c3C(C)C=C2C12CCN(Cc1cccn1C)CC2 (stereo not shown) [compound 819772],103 nM
24,CCN1C(=O)N2Cc3cc(OC)cc(OC)c3C(C)(C)C=C2C12CCN(Cc1cccc3nccnc13)CC2 [compound 819605],260 nM

# Same assay, conditions: Homo sapiens, HEKT-bet-luc assay; value used for normalization; read-out: established potency of the reference compound (IC50)
row,SMILES,IC50
1,COCCN1C(=O)N2Cc3cc(OC)cc(OC)c3C(C)(C)C=C2C12CCN(Cc1cc(OC)cc(OC)c1)CC2 [ER-819544],35 nM
